Source: publication PMC9459109, “A higher spectral range of beetle bioluminescence with infraluciferin” (Frontiers in Bioengineering and Biotechnology, 2022)

Columns and labels:
Conditions in all cases: saturating DL-infraluciferin (DL-iLH2) as co-substrate
[1] = target: WT Fluc (Photinus pyralis firefly luciferase, Ppy Fluc) (Photinus pyralis, UniProt P08659)
[2] = tested on: T1, Eluc; experiment: bioluminescence, ATP […] to […], Hanes-Woolf plot; format: biochemical, Pyrearinus termitilluminans
T1 construct: 10X N-terminal His tag, pET16b, E. coli BL21(DE3) pLysS, Ni-NTA purified; amplified from plasmid pLR6-Eluc

[3] = target: WT Fluc (Photinus pyralis firefly luciferase, Ppy Fluc) (Photinus pyralis, UniProt P08659, E354R/D357Y)
WT Fluc (Photinus pyralis firefly luciferase, Ppy Fluc) (Photinus pyralis, UniProt P08659, E354R/D357Y), sequence (P08659 whole entry E354R/D357Y): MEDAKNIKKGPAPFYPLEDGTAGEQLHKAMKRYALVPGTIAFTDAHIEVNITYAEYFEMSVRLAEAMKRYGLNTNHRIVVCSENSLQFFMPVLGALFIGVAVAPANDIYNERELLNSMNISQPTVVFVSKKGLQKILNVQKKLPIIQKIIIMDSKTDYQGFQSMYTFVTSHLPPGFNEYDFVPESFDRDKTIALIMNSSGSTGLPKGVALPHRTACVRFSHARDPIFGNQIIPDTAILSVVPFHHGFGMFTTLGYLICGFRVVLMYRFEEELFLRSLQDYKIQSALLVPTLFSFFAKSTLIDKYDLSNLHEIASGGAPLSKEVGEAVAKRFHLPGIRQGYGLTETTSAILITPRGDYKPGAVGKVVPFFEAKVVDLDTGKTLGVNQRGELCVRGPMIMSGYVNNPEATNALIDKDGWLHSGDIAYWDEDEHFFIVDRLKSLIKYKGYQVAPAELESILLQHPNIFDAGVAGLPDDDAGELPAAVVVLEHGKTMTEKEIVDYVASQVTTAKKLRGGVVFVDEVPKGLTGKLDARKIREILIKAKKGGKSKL

WT Fluc (Photinus pyralis firefly luciferase, Ppy Fluc) (Photinus pyralis, UniProt P08659), sequence (P08659 whole entry): as the sequence (P08659 whole entry E354R/D357Y) above, with R354E, Y357D counted along it

Nc1ncnc2c1ncn2[C@@H]1O[C@H](COP(=O)(O)OP(=O)(O)OP(=O)(O)O)[C@@H](O)[C@H]1O [ATP]
Km [1]: 160 µM
Km [2]: 200 µM
Km [3]: Kms for ATP in the presence of DL-iLH2 (ATP(iLH2))
